Data reported in patent publication US7355042B2, “Treatment of CNS disorders using CNS target modulators” (Hypnion, Inc., priority 2001, dated 2008).
pKi: −log10 of the molar value. Structures can show the parent of a compound that is named as a salt. Marks after values point to notes of the source that are not given here.

Assays:
[1] = target: T1, M2 receptor from rat cardiac membranes (Rattus norvegicus, UniProt P10980); details: read-out: Ki of reference compounds, M2 binding assay; cited from earlier work
T1 construct: the M2 receptor was from rat cardiac membranes; from tissue; host or cells: rat cardiac membranes
T1 sequence (P10980 1-466): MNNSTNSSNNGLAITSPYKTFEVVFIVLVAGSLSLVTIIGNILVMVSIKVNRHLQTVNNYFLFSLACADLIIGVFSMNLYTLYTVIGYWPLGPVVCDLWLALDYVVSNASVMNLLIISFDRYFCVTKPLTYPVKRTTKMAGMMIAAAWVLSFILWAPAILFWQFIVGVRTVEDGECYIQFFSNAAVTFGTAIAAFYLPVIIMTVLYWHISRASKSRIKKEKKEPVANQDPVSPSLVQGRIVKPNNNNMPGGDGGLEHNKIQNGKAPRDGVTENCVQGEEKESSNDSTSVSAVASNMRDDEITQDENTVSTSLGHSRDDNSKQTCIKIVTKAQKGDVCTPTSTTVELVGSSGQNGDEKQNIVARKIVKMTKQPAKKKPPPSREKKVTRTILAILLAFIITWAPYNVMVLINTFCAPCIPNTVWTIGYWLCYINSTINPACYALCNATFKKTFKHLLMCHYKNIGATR

[2] = target: T2, human recombinant M2 muscarinic receptor expressed in CHO cells (Homo sapiens, UniProt P08172); test: M2 binding assay (human recombinant); details: 1.0E−6
T2 construct: expressed in transfected cells; host or cells: CHO cells
T2 sequence (P08172 1-466): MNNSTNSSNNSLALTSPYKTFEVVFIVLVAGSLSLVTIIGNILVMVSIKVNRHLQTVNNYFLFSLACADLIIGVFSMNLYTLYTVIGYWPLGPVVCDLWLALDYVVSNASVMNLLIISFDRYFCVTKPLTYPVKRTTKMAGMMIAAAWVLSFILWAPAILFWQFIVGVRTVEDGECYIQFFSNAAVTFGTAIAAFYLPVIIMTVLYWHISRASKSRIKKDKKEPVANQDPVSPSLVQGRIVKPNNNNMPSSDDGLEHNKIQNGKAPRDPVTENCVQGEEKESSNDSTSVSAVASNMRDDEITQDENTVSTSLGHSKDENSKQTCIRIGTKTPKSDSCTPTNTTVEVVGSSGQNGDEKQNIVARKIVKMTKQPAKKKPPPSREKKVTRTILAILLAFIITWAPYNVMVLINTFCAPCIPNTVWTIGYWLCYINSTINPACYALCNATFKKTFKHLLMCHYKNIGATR

[3] = target: Histamine, H2 (Homo sapiens, UniProt P25021); test: Receptor selectivity binding comparison: Histamine H2; details: 1.0E−6
[4] = target: cloned hERG channels expressed in HEK293 cells (Homo sapiens, UniProt Q12809); test: hERG block comparative study, whole cell recording; details: table title 1.0E−6
[5] = target: T3, human recombinant M1 muscarinic receptor expressed in CHO cells (Homo sapiens, UniProt P11229); test: M1 binding assay (human recombinant), [3H]-scopolamine N-methyl chloride; details: 1.0E−6
T3 construct: expressed in transfected cells; host or cells: CHO cells
T3 sequence (P11229 1-460): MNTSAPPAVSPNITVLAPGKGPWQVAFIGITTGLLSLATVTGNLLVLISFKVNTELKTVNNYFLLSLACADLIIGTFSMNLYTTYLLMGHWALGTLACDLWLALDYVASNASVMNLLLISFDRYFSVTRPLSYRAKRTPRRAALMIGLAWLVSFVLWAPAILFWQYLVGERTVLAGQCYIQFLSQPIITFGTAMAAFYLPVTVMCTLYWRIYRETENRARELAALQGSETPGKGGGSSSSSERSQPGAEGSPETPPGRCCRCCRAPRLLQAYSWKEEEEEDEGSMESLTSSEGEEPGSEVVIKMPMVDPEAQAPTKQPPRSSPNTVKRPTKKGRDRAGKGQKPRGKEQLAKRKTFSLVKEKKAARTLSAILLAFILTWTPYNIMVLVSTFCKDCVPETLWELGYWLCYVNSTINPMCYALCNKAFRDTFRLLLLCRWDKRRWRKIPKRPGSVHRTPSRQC

[6] = target: Norepinephrine Transporter (Homo sapiens, UniProt P23975); test: Receptor selectivity binding comparison: Norepinephrine Transporter; details: 1.0E−6
[7] = tested on: male Wistar rats; test: Sleep-wakefulness, locomotor activity and body temperature monitoring (SCORE-2000); format: in vivo, rat; details: 30 mg/kg PO at CT-18
[8] = target: T3, human recombinant M1 muscarinic receptor expressed in CHO cells; details: read-out: Ki of reference compounds, M1 binding assay; cited from earlier work
[9] = tested on: M3 receptor from guinea pig ileum membranes; details: read-out: Ki of reference compounds, M3 binding assay; cited from earlier work

Histamine, H2, sequence (P25021 whole entry): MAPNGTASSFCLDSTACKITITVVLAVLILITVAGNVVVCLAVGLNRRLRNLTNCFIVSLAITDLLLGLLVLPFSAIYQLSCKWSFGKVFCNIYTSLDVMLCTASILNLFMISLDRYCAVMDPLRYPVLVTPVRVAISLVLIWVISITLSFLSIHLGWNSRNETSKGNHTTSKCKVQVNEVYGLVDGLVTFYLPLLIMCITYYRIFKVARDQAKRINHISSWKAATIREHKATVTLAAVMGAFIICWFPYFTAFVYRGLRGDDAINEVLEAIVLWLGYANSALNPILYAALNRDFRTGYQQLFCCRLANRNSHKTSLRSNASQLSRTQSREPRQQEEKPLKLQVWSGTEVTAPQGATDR
cloned hERG channels expressed in HEK293 cells, sequence (Q12809 whole entry): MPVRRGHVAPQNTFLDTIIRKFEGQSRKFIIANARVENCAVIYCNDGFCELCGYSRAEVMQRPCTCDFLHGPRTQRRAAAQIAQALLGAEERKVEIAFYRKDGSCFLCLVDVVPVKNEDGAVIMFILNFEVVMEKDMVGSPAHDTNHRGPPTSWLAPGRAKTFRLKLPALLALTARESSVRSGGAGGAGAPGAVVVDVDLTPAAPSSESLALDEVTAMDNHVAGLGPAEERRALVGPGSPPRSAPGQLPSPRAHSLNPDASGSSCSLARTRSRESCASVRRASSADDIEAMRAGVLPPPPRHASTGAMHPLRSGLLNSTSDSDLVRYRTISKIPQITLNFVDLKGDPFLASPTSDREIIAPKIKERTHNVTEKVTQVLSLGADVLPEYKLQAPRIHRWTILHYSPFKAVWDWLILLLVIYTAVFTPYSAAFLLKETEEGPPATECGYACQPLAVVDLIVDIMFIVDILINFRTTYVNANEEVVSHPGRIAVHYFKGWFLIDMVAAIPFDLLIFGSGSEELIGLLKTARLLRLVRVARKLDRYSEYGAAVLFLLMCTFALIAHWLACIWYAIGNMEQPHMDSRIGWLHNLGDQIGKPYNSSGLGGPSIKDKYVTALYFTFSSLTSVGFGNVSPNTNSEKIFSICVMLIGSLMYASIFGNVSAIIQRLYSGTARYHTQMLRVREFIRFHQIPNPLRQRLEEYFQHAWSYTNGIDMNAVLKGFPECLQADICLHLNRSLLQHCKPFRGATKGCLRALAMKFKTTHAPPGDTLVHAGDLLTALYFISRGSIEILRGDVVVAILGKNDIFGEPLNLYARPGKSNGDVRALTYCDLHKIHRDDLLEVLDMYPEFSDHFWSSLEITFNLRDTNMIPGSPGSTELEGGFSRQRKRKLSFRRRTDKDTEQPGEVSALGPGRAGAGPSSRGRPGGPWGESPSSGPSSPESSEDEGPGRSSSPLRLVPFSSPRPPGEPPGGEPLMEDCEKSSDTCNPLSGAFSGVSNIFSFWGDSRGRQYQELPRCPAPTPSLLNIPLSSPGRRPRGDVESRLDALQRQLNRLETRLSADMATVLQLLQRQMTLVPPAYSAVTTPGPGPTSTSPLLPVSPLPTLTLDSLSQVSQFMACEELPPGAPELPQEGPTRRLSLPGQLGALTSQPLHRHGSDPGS
Norepinephrine Transporter, sequence (P23975 whole entry, species assumed): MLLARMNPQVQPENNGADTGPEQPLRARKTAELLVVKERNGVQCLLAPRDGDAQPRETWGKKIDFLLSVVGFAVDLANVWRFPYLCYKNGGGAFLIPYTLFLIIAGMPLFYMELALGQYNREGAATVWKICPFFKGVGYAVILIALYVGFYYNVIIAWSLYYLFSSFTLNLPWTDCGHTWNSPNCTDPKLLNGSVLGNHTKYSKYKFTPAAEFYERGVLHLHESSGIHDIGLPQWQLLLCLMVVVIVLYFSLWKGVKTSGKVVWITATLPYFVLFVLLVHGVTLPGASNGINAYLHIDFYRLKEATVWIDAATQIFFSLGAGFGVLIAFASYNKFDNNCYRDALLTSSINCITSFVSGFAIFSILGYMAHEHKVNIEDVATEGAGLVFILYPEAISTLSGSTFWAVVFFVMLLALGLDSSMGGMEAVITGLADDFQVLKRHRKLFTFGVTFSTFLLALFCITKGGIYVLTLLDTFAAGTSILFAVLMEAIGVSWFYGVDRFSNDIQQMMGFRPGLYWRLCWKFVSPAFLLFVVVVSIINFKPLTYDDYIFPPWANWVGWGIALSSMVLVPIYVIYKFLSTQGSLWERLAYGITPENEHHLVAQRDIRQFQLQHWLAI

CCN(CC)CC1CCCCN1CC(=O)N1c2ccccc2C(=O)Nc2cccnc21 (stereo not shown) [AF-DX 116]
pKi [1]: 7.20

CN(C)CCC=C1c2ccccc2COc2ccccc21 [Doxepin, doxepin HCl, reference compound]
Percent Inhibition, Muscarinic, M2 (Human Recombinant) [2]: 74.0% | Percent Inhibition, Histamine, H2 [3]: 74.7% | Percent Inhibition, HERG [4]: 23%**

O=C(O)CCN1CCC(=C2c3ccccc3COc3ccccc32)CC1 [Compound 8a]
Percent Inhibition, Histamine, H2 [3]: 33.4% | Percent Inhibition, Muscarinic, M1 (Human Recombinant) [5]: 3.3% | Percent Inhibition, Norepinephrine Transporter [6]: −3.9% | Percent Inhibition, HERG [4]: 4% | Average Bout-Length [7]: 12.2 min | Maximum Bout Length [7]: 28.9 min | NREM Accum. [7]: 65.8 min | NREM Peak (%/hr) [7]: 75.5 %/hr | Onset [7]: 65 min

C[N+]1(C)CCC(OC(=O)C(c2ccccc2)c2ccccc2)CC1 [4-DAMP methiodide]
pKi [8]: 9.57 | pKi [9]: 7.43

O[Si](CCCN1CCCCC1)(c1ccccc1)C1CCCCC1 (stereo not shown) [HHSID]
pKi [9]: 6.55
